Data from US10335503B2, “Compound that specifically binds to AMPA receptor” (Public University Corporation Yokohama City University, priority 2015, dated 2019).

How the values were obtained:
Conditions in all cases: K-2 at 1 × 10^−7 mol/L
[1] = target: Histamine H1 (Homo sapiens, UniProt P35367); test: Receptor binding panel: Histamine H1
[2] = target: α1B-Adrenergic (Homo sapiens, UniProt P35368); test: Receptor binding panel: α1B-Adrenergic
[3] = target: β1-Adrenergic (Homo sapiens, UniProt P08588); test: Receptor binding panel: β1-Adrenergic
[4] = test system: Leukotriene D4; test: Receptor binding panel: Leukotriene D4
[5] = target: Vasopressin V1 (Homo sapiens, UniProt P37288); test: Receptor binding panel: Vasopressin V1
Chain of Vasopressin V1 (P37288 whole entry): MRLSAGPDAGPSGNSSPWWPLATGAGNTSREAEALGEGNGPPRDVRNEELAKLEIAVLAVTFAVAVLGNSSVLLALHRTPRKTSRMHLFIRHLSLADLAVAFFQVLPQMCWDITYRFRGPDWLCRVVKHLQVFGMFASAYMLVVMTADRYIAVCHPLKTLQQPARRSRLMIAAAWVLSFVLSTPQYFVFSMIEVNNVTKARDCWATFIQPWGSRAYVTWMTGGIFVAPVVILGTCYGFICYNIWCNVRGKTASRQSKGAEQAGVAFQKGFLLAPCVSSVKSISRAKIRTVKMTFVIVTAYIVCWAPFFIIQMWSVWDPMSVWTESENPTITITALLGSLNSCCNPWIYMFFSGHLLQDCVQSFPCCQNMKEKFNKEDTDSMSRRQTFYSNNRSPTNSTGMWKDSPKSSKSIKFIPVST

[6] = target: α2A-Adrenergic (Homo sapiens, UniProt P08913); test: Receptor binding panel: α2A-Adrenergic
Chain of α2A-Adrenergic (P08913 whole entry): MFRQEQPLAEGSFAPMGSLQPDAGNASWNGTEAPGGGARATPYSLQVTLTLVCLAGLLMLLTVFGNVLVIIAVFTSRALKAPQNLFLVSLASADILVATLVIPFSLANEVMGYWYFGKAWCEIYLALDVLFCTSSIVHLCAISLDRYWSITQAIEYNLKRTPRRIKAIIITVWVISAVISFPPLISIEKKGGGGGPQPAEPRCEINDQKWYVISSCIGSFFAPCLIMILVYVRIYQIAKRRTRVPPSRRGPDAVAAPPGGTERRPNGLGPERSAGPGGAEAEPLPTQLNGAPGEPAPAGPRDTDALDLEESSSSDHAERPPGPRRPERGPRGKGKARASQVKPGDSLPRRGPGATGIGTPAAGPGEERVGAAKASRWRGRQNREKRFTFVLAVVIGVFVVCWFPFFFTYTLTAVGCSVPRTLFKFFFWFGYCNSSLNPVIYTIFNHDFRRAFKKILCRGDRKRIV

[7] = target: Adenosine A1 (Homo sapiens, UniProt P30542); test: Receptor binding panel: Adenosine A1
Chain of Adenosine A1 (P30542 whole entry): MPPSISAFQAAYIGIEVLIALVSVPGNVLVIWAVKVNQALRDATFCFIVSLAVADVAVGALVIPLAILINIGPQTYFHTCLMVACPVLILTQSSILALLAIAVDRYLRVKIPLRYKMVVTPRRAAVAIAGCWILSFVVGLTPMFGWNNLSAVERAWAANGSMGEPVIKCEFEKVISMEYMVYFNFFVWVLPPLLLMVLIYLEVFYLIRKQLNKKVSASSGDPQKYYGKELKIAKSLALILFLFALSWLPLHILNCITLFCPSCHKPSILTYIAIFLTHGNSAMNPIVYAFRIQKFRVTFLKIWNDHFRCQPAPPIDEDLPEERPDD

[8] = test system: Ca channel (Type L, Dihydropyridine); test: Receptor binding panel: Ca channel (Type L, Dihydropyridine)
[9] = test system: Estrogen; test: Receptor binding panel: Estrogen
[10] = test system: K Channel SKCa; test: Receptor binding panel: K Channel SKCa
[11] = test system: Glutamate (NMDA glycine site); test: Receptor binding panel: Glutamate (NMDA glycine site)
[12] = target: Opiate κ (Homo sapiens, UniProt P41145); test: Receptor binding panel: Opiate κ
[13] = target: Angiotensin AT2 (Homo sapiens, UniProt P50052); test: Receptor binding panel: Angiotensin AT2
[14] = target: Serotonin transporter (Homo sapiens, UniProt P31645); test: Receptor binding panel: Serotonin transporter
[15] = target: Histamine H2 (Homo sapiens, UniProt P25021); test: Receptor binding panel: Histamine H2
[16] = test system: K Channel KATP; test: Receptor binding panel: K Channel KATP
[17] = target: Dopamine transporter (Homo sapiens, UniProt Q01959); test: Receptor binding panel: Dopamine transporter
[18] = test system: Glutamate (Kainate); test: Receptor binding panel: Glutamate (Kainate)
[19] = test system: Glutamate (AMPA); test: Receptor binding panel: Glutamate (AMPA)
[20] = target: Sigma σ2 (Homo sapiens, UniProt Q5BJF2); test: Receptor binding panel: Sigma σ2
[21] = target: Endothelin ETB (Homo sapiens, UniProt P24530); test: Receptor binding panel: Endothelin ETB
[22] = target: Androgen (Homo sapiens, UniProt P10275); test: Receptor binding panel: Androgen
Chain of Androgen (P10275 whole entry): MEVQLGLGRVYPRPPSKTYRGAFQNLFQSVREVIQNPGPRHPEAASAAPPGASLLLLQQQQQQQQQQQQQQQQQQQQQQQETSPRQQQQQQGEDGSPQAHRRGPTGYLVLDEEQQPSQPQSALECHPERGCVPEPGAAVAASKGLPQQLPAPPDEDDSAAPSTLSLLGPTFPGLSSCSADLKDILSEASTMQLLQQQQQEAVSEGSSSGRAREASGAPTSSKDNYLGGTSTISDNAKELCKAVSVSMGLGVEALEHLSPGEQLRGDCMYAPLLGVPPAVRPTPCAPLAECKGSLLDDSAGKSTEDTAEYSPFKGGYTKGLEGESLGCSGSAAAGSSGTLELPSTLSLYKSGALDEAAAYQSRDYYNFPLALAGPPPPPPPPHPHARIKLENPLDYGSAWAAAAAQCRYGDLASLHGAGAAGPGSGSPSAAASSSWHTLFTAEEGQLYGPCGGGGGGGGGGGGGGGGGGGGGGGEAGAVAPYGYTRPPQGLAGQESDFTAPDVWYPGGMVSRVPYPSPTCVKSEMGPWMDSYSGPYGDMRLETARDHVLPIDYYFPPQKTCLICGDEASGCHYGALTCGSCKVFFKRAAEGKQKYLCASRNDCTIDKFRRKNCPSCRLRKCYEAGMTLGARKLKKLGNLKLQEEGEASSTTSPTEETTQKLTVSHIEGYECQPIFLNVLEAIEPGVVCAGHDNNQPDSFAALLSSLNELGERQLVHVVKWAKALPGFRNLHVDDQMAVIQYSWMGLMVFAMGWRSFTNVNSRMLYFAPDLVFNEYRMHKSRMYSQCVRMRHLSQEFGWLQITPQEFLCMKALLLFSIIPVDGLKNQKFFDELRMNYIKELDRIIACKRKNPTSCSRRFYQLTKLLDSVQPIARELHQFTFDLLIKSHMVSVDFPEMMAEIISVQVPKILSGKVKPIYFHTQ

[23] = target: Vasopressin V1B (Homo sapiens, UniProt P47901); test: Receptor binding panel: Vasopressin V1B
[24] = target: Serotonin 5HT2A (Homo sapiens, UniProt P28223); test: Receptor binding panel: Serotonin 5HT2A
[25] = target: Dopamine D2 short (Homo sapiens, UniProt P14416); test: Receptor binding panel: Dopamine D2 short
[26] = test system: Glutamate (NMDA phencyclidine site); test: Receptor binding panel: Glutamate (NMDA phencyclidine site)
[27] = target: Dopamine D1 (Homo sapiens, UniProt P21728); test: Receptor binding panel: Dopamine D1
[28] = test system: GABA A (Agonist site); test: Receptor binding panel: GABA A (Agonist site)
[29] = target: GABA B (Homo sapiens, UniProt Q9UBS5); test: Receptor binding panel: GABA B
Chain of GABA B (Q9UBS5 15-961 limits assumed): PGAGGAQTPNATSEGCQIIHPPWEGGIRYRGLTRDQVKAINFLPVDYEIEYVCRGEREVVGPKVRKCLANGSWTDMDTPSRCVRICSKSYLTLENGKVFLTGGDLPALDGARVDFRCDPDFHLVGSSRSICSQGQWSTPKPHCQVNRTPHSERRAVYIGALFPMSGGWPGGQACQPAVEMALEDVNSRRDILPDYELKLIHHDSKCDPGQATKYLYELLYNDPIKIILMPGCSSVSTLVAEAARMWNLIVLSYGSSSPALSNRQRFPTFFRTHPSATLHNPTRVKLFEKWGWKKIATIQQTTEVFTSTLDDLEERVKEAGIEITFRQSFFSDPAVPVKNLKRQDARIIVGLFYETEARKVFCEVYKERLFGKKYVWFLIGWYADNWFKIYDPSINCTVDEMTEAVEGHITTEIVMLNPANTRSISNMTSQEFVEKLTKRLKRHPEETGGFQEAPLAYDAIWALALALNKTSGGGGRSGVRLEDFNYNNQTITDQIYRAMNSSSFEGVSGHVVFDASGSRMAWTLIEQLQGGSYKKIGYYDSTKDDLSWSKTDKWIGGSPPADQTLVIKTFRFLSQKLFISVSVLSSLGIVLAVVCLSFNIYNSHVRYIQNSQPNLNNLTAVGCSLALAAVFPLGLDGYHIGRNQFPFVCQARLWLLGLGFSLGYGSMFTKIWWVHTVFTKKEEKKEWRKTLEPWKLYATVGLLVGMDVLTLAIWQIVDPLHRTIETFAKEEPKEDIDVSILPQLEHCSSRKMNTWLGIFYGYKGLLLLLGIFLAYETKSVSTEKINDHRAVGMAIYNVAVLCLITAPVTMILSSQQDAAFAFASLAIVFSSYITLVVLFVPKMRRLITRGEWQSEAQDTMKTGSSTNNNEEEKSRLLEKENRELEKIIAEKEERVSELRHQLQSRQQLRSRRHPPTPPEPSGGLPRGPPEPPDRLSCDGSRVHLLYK
Chain of GABA B (O75899 41-941 partner limits assumed): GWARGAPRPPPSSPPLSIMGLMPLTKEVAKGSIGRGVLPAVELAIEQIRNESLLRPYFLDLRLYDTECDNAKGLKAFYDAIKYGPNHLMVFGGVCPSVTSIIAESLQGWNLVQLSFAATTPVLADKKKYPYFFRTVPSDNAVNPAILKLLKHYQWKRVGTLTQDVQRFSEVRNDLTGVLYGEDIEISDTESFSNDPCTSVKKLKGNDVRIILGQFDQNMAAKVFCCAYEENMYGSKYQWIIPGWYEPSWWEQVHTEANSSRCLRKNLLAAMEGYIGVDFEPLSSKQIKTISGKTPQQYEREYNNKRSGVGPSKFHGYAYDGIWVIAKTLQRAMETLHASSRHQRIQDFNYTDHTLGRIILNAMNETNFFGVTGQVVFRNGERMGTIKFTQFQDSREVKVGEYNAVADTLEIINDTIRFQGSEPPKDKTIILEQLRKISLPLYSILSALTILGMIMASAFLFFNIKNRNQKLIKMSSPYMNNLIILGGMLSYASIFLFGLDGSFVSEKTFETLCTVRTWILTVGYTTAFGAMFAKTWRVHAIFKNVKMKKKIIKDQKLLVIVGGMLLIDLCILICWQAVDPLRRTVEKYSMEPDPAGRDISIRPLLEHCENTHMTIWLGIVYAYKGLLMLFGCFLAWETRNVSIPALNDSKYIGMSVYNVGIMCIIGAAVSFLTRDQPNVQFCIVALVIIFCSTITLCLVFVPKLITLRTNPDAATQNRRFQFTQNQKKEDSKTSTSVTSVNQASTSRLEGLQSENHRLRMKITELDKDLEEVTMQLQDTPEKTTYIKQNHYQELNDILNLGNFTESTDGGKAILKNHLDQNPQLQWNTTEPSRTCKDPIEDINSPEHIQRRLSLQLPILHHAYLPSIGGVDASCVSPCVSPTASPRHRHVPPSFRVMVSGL

[30] = target: Serotonin 5HT3 (Homo sapiens, UniProt P46098); test: Receptor binding panel: Serotonin 5HT3
[31] = target: VIP 1 (Homo sapiens, UniProt P32241); test: Receptor binding panel: VIP 1
[32] = target: PAF (Homo sapiens, UniProt P25105); test: Receptor binding panel: PAF
[33] = test system: Glutamate (NMDA agonist site); test: Receptor binding panel: Glutamate (NMDA agonist site)
[34] = target: T1, CRF1 (Homo sapiens, UniProt P34998); test: Receptor binding panel: CRF1
T1 sequence (P34998 24-415): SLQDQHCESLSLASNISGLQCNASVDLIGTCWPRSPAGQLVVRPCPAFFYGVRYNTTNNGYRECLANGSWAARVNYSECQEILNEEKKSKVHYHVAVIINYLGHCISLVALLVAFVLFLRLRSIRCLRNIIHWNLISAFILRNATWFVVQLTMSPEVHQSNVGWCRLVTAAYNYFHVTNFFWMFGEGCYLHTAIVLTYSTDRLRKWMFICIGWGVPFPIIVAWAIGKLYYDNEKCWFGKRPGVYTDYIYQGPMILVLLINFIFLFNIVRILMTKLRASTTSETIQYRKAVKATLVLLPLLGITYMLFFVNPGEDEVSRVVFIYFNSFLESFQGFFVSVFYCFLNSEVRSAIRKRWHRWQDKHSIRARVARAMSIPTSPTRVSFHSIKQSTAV

Chain of α1B-Adrenergic (P35368 whole entry): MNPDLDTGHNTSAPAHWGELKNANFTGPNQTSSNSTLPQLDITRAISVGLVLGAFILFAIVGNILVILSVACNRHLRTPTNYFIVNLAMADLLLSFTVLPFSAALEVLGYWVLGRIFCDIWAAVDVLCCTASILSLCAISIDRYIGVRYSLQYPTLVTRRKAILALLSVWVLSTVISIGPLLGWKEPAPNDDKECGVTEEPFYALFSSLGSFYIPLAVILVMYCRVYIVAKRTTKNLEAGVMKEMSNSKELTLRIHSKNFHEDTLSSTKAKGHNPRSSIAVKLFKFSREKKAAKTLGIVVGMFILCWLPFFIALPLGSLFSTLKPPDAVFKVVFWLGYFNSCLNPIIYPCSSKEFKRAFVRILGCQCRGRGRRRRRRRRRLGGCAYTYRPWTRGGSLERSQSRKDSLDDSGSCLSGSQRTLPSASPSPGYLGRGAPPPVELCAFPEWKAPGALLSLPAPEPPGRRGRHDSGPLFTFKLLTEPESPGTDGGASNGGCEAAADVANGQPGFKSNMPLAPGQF
Chain of Histamine H1 (P35367 whole entry): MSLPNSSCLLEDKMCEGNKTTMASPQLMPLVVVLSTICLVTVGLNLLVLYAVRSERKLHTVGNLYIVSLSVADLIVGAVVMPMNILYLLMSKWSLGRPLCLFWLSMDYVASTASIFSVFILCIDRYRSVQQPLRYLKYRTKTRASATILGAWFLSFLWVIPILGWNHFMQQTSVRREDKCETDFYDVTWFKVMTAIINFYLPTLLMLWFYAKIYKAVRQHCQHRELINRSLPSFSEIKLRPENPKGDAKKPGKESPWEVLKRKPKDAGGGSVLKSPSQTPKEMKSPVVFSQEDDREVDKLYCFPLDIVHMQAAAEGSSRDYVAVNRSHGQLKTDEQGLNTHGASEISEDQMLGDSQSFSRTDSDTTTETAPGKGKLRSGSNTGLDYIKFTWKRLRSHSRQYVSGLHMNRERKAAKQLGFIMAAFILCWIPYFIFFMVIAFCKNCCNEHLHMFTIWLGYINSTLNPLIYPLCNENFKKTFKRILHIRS

For CN(CCSc1cc(F)c(OCC(N)=O)c(F)c1)S(=O)(=O)c1ccccc1 [K-2, {4-[2-(benzenesulfonyl-methyl-amino)-ethylsulfanil]-2,6-difluoro-phenoxy}-acetamide], the inhibition at 0.1 µM [1] was 6.53%, the inhibition at 0.1 µM [2] was 0% and the inhibition at 0.1 µM [3] was 0.82%. For the same molecule, the “Inhibition (%)” value [4] was 0.16%, the inhibition at 0.1 µM [5] was 4.76% and the inhibition at 0.1 µM [6] was 8.77%. For the same molecule, the inhibition at 0.1 µM [7] was 5.29%, the “Inhibition (%)” value [8] was 0.53% and the “Inhibition (%)” value [9] was 2.83%. For the same molecule, the “Inhibition (%)” value [10] was 0.00%, the “Inhibition (%)” value [11] was 0.64% and the inhibition at 0.1 µM [12] was 0%. For the same molecule, the inhibition at 0.1 µM [13] was 1.05%, the inhibition at 0.1 µM [14] was 0.17% and the inhibition at 0.1 µM [15] was 0.79%. For the same molecule, the “Inhibition (%)” value [16] was 5.71%, the inhibition at 0.1 µM [17] was 0.29% and the “Inhibition (%)” value [18] was 1.68%. For the same molecule, the “Inhibition (%)” value [19] was 1.74%, the inhibition at 0.1 µM [20] was 4.07% and the inhibition at 0.1 µM [21] was 0%. For the same molecule, the inhibition at 0.1 µM [22] was 0.57%, the inhibition at 0.1 µM [23] was 1.48% and the inhibition at 0.1 µM [24] was 9.32%. The inhibition at 0.1 µM [25] was 5.33%, the “Inhibition (%)” value [26] was 5.02% and the inhibition at 0.1 µM [27] was 10.2%. For the same molecule, the “Inhibition (%)” value [28] was 0.38%, the inhibition at 0.1 µM [29] was 1.9% and the inhibition at 0.1 µM [30] was 1.57%. The inhibition at 0.1 µM [31] was 0%, the inhibition at 0.1 µM [32] was 0% and the “Inhibition (%)” value [33] was 0.57%. For the same molecule, the inhibition at 0.1 µM [34] was 1.37%.
